Reference: PMC10057480, “Expanding the Library of 1,2,4-Oxadiazole Derivatives: Discovery of New Farnesoid X Receptor (FXR) Antagonists/Pregnane X Receptor (PXR) Agonists” (Molecules, 2023)
Values joined by “and” are separate entries in the source; they are usually repeats but may differ in a detail not shown here. Equal values may be shown once.

How the values were obtained:
Format in all cases: cell-based
FXR = target: T1, FXR (Homo sapiens, UniProt Q96RI1); assay: FXR luciferase reporter transactivation assay (antagonism) on HepG2 cells; settings: HepG2 transactivation; compounds at 50 μM; percent inhibition of transactivation set at 100%; mean ± SD, at least three experiments
T1 construct: expressed in transfected cells; host or cells: HepG2
T1 sequence (Q96RI1 1-486): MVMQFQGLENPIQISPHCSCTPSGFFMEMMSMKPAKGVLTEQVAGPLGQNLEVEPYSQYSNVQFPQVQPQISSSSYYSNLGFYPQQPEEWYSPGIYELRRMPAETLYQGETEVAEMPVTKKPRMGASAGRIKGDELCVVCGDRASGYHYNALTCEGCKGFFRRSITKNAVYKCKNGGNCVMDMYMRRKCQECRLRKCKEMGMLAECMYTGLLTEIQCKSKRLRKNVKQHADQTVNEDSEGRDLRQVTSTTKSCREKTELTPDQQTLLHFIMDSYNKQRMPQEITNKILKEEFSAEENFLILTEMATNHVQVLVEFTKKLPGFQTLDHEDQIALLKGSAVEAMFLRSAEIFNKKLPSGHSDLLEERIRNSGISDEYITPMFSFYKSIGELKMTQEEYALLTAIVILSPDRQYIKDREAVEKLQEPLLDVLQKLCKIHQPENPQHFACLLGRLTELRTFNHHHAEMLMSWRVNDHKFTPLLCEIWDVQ
Method: The antagonistic activity on FXR was investigated using HepG2 cells transfected with 100 ng of pSG5-FXR and pSG5-RXR, 200 ng of the reporter vector p(hsp27)-TK-LUC containing the FXR response element, and 100 ng of the pGL4.70 vector encoding the human Renilla gene used as a transfection control. […] In another experimental setting, HepG2 cells were transfected using 100 ng of pSG5-PXR, 100 ng of pSG5-RXR, and 100 ng of pGL4.70, along with the reporter vector pGL3(henance)PXRE. At 24 h post-transfection, cells were stimulated with rifaximin 10 μM (as a positive control) or compounds 2–11 (10 μM). The specificity of compounds 5 and 11 versus FXR and PXR was tested using HepG2 cells transiently transfected with 200 ng of the reporter vector p(UAS)5XTKLuc, 100 ng of a vector containing the ligand binding domain of LXRα or LXRβand 100 ng of pGL4.70, a vector encoding the human Renilla gene. At 24 h post-transfection, cells were stimulated for 18 h with GW3965 (5 μM), compounds 5 and 11 (10 μM), and the combination of GW3965 plus 5 or 11 (50 μM). Cellular lysate was assayed for luciferase and Renilla activities after 18 h using the Dual-Luciferase Reporter assay system (E1980, Promega, Madison, WI, USA). The activity of luciferase was measured using the Glomax 20/20 luminometer (Promega, Madison, WI, USA) and normalized with Renilla activities.

PXR = target: T2, PXR (Homo sapiens, UniProt O75469); assay: PXR luciferase reporter transactivation assay (agonism) on HepG2 cells; settings: compound 10 μM, maximal transactivation compared to Rifaximin 10 μM, mean ± SD, at least three experiments
T2 construct: expressed in transfected cells; host or cells: HepG2
T2 sequence (O75469 1-434): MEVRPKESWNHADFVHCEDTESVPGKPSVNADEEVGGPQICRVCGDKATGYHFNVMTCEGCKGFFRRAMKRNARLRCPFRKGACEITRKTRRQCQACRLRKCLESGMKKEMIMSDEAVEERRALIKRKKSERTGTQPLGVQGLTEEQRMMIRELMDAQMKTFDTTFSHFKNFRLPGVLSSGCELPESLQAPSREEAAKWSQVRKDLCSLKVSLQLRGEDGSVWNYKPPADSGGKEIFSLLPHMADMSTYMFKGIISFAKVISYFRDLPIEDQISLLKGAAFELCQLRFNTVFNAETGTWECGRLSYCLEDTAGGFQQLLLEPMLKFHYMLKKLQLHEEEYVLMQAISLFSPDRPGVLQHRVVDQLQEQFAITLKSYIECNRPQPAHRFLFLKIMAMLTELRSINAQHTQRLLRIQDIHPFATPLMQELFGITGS
T2 sequence (P19793 1-462 partner): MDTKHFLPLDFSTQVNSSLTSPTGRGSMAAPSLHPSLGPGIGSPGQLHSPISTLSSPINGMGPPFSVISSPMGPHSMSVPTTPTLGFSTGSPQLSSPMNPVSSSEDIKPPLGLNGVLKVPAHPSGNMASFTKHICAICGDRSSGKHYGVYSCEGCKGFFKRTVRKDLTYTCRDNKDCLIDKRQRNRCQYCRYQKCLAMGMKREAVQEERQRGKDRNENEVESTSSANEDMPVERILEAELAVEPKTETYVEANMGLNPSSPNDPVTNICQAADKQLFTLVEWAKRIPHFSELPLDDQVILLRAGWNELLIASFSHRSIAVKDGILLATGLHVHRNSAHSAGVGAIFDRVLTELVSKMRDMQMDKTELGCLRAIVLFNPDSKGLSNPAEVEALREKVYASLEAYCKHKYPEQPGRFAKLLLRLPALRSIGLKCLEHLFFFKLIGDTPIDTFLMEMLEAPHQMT
Method: (§1) The antagonistic activity on FXR was investigated using HepG2 cells transfected with 100 ng of pSG5-FXR and pSG5-RXR, 200 ng of the reporter vector p(hsp27)-TK-LUC containing the FXR response element, and 100 ng of the pGL4.70 vector encoding the human Renilla gene used as a transfection control. Cells were stimulated with the agonist 6-ECDCA (10 µM) alone or in combination with compounds 2–11 after 24 h. In another experimental setting, HepG2 cells were transfected using 100 ng of pSG5-PXR, 100 ng of pSG5-RXR, and 100 ng of pGL4.70, along with the reporter vector pGL3(henance)PXRE. At 24 h post-transfection, cells were stimulated with rifaximin 10 μM (as a positive control) or compounds 2–11 (10 μM). The specificity of compounds 5 and 11 versus FXR and PXR was tested using HepG2 cells transiently transfected with 200 ng of the reporter vector p(UAS)5XTKLuc, 100 ng of a vector containing the ligand binding domain of LXRα or LXRβand 100 ng of pGL4.70, a vector encoding the human Renilla gene. At 24 h post-transfection, cells were stimulated for 18 h with GW3965 (5 μM), compounds 5 and 11 (10 μM), and the combination of GW3965 plus 5 or 11 (50 μM). Cellular lysate was assayed for luciferase and Renilla activities after 18 h using the Dual-Luciferase Reporter assay system (E1980, Promega, Madison, WI, USA). The activity of luciferase was measured using the Glomax 20/20 luminometer (Promega, Madison, WI, USA) and normalized with Renilla activities.

HepG2 cells = assay: Toxicity on HepG2 cells seen in the FXR transactivation assay; settings: at 50 μM
Method: as §1

[1] = tested on: Human-CaCo2 cells stimulated with TNFα; assay: qPCR of PXR and inflammatory cytokines in TNFα-stimulated CaCo2 cells; settings: TNFα 100 ng/mL plus compound 10 μM
Method: HepG2 and CaCo2 cell lines, obtained from ATCC, were routinely cultured in Eagle’s MEM and high-glucose DMEM, respectively, supplemented with 10% FBS, 1% glutamine, and penicillin/streptomycin. For in vitro experiments, HepG2 (2 × 106) cells were stimulated with 6-ECDCA at a concentration of 10 µM alone or in combination with compound 5 or 11, and CaCo2 cells were exposed to TNFα (100 ng/mL) alone or in combination with rifaximin, compound 5, or 11.
Total RNA was isolated from the HepG2 and CaCo2 cell lines using TRI reagent (Zymo Research) and Direct-zol™ RNA MicroPrep w/Zymo-Spin™ IIC Columns (Zymo Research, Irvine, CA, USA). After purification from genomic DNA using DNase I (Thermo Fisher Scientific, Waltham, MA, USA), 2 μg of RNA from each sample was reverse transcribed using Kit FastGene Scriptase Basic (Nippon Genetics, Mariaweilerstraße, Düren, Germany) in 20-μL of reaction volume, and 50 ng of cDNA was amplified in a 20-μL solution containing 200 nM of each primer and 10 μL of PowerUp™ SYBR™ Green Master Mix (Thermo Fisher Scientific, Waltham, MA, USA) using a Quantstudio 3 system (Applied Biosystems, Foster City, CA, USA). The relative mRNA expression was calculated according to the ΔCt method. The primer used were as follows (forward and reverse): hGapdh (for […]; rev […]), hBsep (for […]; rev […]), hOstα (for […]; rev […]), hNtcp (for […]; rev […]), hPxr (for GCAAGGGCTTTTTCAGGAG; rev GGGTCTTCCGGGTGATCT), hIl-8 (for […]; rev […]), hIl-1β (for […]; rev […]).

CCCCN1CCC(c2nc(-c3ccc4ccccc4c3)no2)CC1 [Compound 4, 5-(1-Butylpiperidin-4-yl)-3-(naphthalen-2-yl)-1,2,4-oxadiazole]
FXR Antagonism Eff (%) (FXR): 38 ± 5%
PXR Agonism Eff (%) (PXR): 68% and 68 ± 8%

CCCCCCCN1CCC(c2nc(-c3ccc4ccccc4c3)no2)CC1 [Compound 7, 5-(1-Heptylpiperidin-4-yl)-3-(naphthalen-2-yl)-1,2,4-oxadiazole]
FXR Antagonism Eff (%) (FXR): Toxic
Toxicity on HepG2 cells (HepG2 cells): toxic
PXR Agonism Eff (%) (PXR): 28 ± 3%

CO[C@H]1/C=C/O[C@@]2(C)Oc3c(C)c(O)c4c(O)c(c5c(nc6cc(C)ccn65)c4c3C2=O)NC(=O)/C(C)=C\C=C\[C@H](C)[C@H](O)[C@@H](C)[C@@H](O)[C@@H](C)[C@H](OC(C)=O)[C@@H]1C [rifaximin, reference compound]
Effect on proinflammatory factors caused by TNFα stimulation [1]: reduced changes in the production of proinflammatory factors

CCCCCCN1CCC(c2nc(-c3ccc4ccccc4c3)no2)CC1 [Compound 6, 5-(1-Hexylpiperidin-4-yl)-3-(naphthalen-2-yl)-1,2,4-oxadiazole]
PXR Agonism Eff (%) (PXR): 23 ± 0.7%

CCCN1CCC(c2nc(-c3ccc4ccccc4c3)no2)CC1 [Compound 3, 3-(Naphthalen-2-yl)-5-(1-propylpiperidin-4-yl)-1,2,4-oxadiazole]
FXR Antagonism Eff (%) (FXR): Toxic
Toxicity on HepG2 cells (HepG2 cells): toxic
PXR Agonism Eff (%) (PXR): 15 ± 0.5%

OCc1cccc(CN2CCC(c3nc(-c4ccc5ccccc5c4)no3)CC2)c1 [Compound 10, 5-[1-(3-(Hydroxymethyl)benzyl)piperidin-4-yl]-3-(naphthalen-2-yl)-1,2,4-oxadiazole]
FXR Antagonism Eff (%) (FXR): 66% and 66 ± 13%
PXR Agonism Eff (%) (PXR): 20 ± 3%

CC(C)N1CCC(c2nc(-c3ccc4ccccc4c3)no2)CC1 [Compound 8, 5-(1-Isopropylpiperidin-4-yl)-3-(naphthalen-2-yl)-1,2,4-oxadiazole]
PXR Agonism Eff (%) (PXR): 50% and 50 ± 7%

CCC(C)N1CCC(c2nc(-c3ccc4ccccc4c3)no2)CC1 (stereo not shown) [Compound 9, 5-(1-(Sec-butyl)piperidin-4-yl)-3-(naphthalen-2-yl)-1,2,4-oxadiazole]
FXR Antagonism Eff (%) (FXR): Toxic
Toxicity on HepG2 cells (HepG2 cells): toxic
PXR Agonism Eff (%) (PXR): 3 ± 0.2%

CCN1CCC(c2nc(-c3ccc4ccccc4c3)no2)CC1 [Compound 2, 5-(1-Ethylpiperidin-4-yl)-3-(naphthalen-2-yl)-1,2,4-oxadiazole]
FXR Antagonism Eff (%) (FXR): Toxic
Toxicity on HepG2 cells (HepG2 cells): toxic
PXR Agonism Eff (%) (PXR): 2 ± 0.3%
